What was measured:
[1] = Degree of order S of dye in nematic liquid crystal mixture (dichroic ratio CR, homogeneously oriented measuring cell); assay type: physicochemical
Description: (§1) The degree of order S measured at room temperature, the solubility L likewise determined at room temperature, and the Merck liquid crystal mixtures used are summarized in Table 1 for Examples 1, 4, 5, 8, 12, 15 and 18.
(§2) The values for the degree of order and the solubility which have been measured at room temperature in ZLI 2452 are summarized in Table 2 for some of the Examples 19-46.
The degree of order S was determined on the basis of the known equation [formula] in a commercial measuring cell with a homogeneous orientation (polyimide).The dichroic ratio CR was determined by measuring the extinctions E^.parallel. (measured with light polarized parallel to the preferred direction of the nematic phase) and E^.perp. (measured with light polarized perpendicular to the preferred direction of the nematic phase) and using the relationship CR=E^.parallel. /E^.perp., the dye concentrations being chosen so that E^.parallel. was from 1 to 2. The measurements were carried out using an Acta CIII spectrophotometer from Beckmann.

[2] = Solubility L of dye in liquid crystal mixture at room temperature (saturated solution, comparison of extinctions); assay type: physicochemical
Description: as §1, §2
The solubility was determined as described below. 50 mg of the particular dye was stirred for 1 week at room temperature in 1 ml of liquid crystal, the saturated solution was centrifuged off from the residue, and the solubility was determined by comparison of extinctions.

[3] = liquid crystal mixture ZLI 1957/5
[4] = liquid crystal mixture ZLI 1840
[5] = liquid crystal mixture ZLI 2452 (Table 1)
[6] = liquid crystal mixture ZLI 2585

Row | Structure (SMILES) | Degree of order S (at room temperature) ([1]; ZLI 2452 (Table 2)) | Solubility L (at room temperature) ([2]; ZLI 2452 (Table 2)) [%] | further results
1 | CCCCCCCCSc1nsc(N=Nc2ccc(N=Nc3ccc(N(C)CCCC)cc3)cc2)n1 [Example 1] |  |  | Degree of order S (at room temperature) [1, 3]: 0.72; Solubility L (at room temperature) [2, 3]: 1.5%
2 | CCCCSc1nsc(N=Nc2cc(C)c(N=Nc3ccc(N(C)C)cc3C)cc2C)n1 [Example 4] |  |  | Degree of order S (at room temperature) [1, 4]: 0.73; Solubility L (at room temperature) [2, 4]: 0.9%
3 | Cc1cc(N=Nc2ccc(N(C)C)cc2C)c(C)cc1N=Nc1nc(SCc2ccccc2)ns1 [Example 5] |  |  | Degree of order S (at room temperature) [1, 4]: 0.74; Solubility L (at room temperature) [2, 4]: 0.3%
4 | CCCCCCCCSc1nsc(N=Nc2cc(C)c(N=Nc3ccc(N(C)C)cc3C)cc2C)n1 [Example 8] |  |  | Degree of order S (at room temperature) [1, 3]: 0.73; Degree of order S (at room temperature) [1, 5]: 0.76; Solubility L (at room temperature) [2, 3]: 1.5%
5 | CCNc1ccc(N=Nc2cc(C)c(N=Nc3nc(SC)ns3)cc2C)c2ccccc12 [Example 12] |  |  | Degree of order S (at room temperature) [1, 4]: 0.72; Solubility L (at room temperature) [2, 4]: 0.7%
6 | CCCCCCCCSc1nsc(N=Nc2cc(C)c(N=Nc3ccc(NCc4ccc(C5CCC(CCCC)CC5)cc4)c4ccccc34)cc2C)n1 (stereo not drawn) [Example 15] |  |  | Degree of order S (at room temperature) [1, 3]: 0.77; Degree of order S (at room temperature) [1, 5]: 0.81; Degree of order S (at room temperature) [1, 6]: 0.74; Solubility L (at room temperature) [2, 3]: 1.4%; Solubility L (at room temperature) [2, 5]: 2.8%; Solubility L (at room temperature) [2, 6]: 2.8%
7 | CCCCCCCCSc1nsc(N=Nc2ccc(N=Nc3ccc(NCc4ccc(C5CCC(CCCC)CC5)cc4)c4ccccc34)cc2)n1 (stereo not drawn) [Example 18] |  |  | Degree of order S (at room temperature) [1, 3]: 0.79; Solubility L (at room temperature) [2, 3]: 0.9%
8 | CCCCCCCCNc1ccc(N=Nc2cc(C)c(N=Nc3nc(SCCCCCCCC)ns3)cc2C)c2ccc(C)nc12 [Example 19] | 0.75 | 0.6 | 
9 | CCCCCCCCCCCCN(C)c1ccc(N=Nc2cc(C)c(N=Nc3nc(CCCCCCC)ns3)cc2C)c2ccccc12 [Example 22] | 0.77 | 1.7 | 
10 | CCCCCCCCCCCCNc1ccc(N=Nc2cc(C)c(N=Nc3nc(SC)ns3)cc2C)c2ccccc12 [Example 26] | 0.76 | 1.3 | 
11 | CCCCCCCCCCCCNc1ccc(N=Nc2cc(C)c(N=Nc3nc(SCCCCCCC)ns3)cc2C)c2ccccc12 [Example 35] | 0.79 | 0.6 | 
12 | CCCCCCCCNc1ccc(N=Nc2cc(C)c(N=Nc3nc(SCCCCCCCC)ns3)cc2C)c2ccccc12 [Example 36] | 0.77 | 0.8 | 
13 | CCCCC(CC)CSc1nsc(N=Nc2cc(C)c(N=Nc3ccc(NCC)c4ccccc34)cc2C)n1 (stereo not drawn) [Example 38] | 0.74 | > 5 | 
14 | CCCCCCCCCCCCNc1ccc(N=Nc2cc(C)c(N=Nc3nc(SCCCCCCCCCCCC)ns3)cc2C)c2ccccc12 [Example 40] | 0.77 | 1.2 | 
15 | CCCCCCCCSc1nsc(N=Nc2cc(C)c(N=Nc3ccc(NCCc4ccccc4)c4ccccc34)cc2C)n1 [Example 41] | 0.74 | 0.6 | 
16 | CCCCCCCCSc1nsc(N=Nc2cc(C)c(N=Nc3ccc(NCc4ccc(CCCCC)cc4)c4ccccc34)cc2C)n1 [Example 42] | 0.80 | 0.4 | 
17 | CCCCCCCCSc1nsc(N=Nc2cc(C)c(N=Nc3ccc(Nc4ccc(CCCC)cc4)c4ccccc34)cc2C)n1 [Example 43] | 0.71 | 3.2 | 
18 | CCCCC1CCC(c2ccc(CNc3ccc(N=Nc4ccc(N=Nc5nc(SCC(CC)CCCC)ns5)cc4)c4ccccc34)cc2)CC1 (stereo not drawn) [Example 44] | 0.81 | 2.6 | 
19 | CCCCC1CCC(c2ccc(CNc3ccc(N=Nc4ccc(N=Nc5nc(SCC(CC)CCCC)ns5)c(C)c4)c4ccccc34)cc2)CC1 (stereo not drawn) [Example 45] | 0.81 | 2.4 | 
20 | CCCCC1CCC(c2ccc(CNc3ccc(N=Nc4cc(C)c(N=Nc5nc(SCC(CC)CCCC)ns5)cc4C)c4ccccc34)cc2)CC1 (stereo not drawn) [Example 46] | 0.80 | 0.8 | 
